The values that follow come from US11649233B2, “Halo-allylamine SSAO/VAP-1 inhibitor and use thereof” (Nanjing Transthera Biosciences Co., Ltd., priority 2017, dated 2023).

Where a name gives a salt, the structure may show the parent alone. A value given as a limit tells only on which side of the number the result lay.

Series [1] in a line: Stability test in human liver microsome. It counts as in vitro ADME. As to conditions: human liver microsome 0.5 mg protein/mL, compound 1 μM, β-NADPH. The method, then:
Biological Example 3: Stability Test of the Compounds of the Present Invention in Human Liver Microsome
The composition of the incubation system:
(1) The liver microsome (20 mg protein/mL) was removed from the −80° C. refrigerator, pre-incubated in a 37° C. water bath constant temperature oscillator for 3 minutes, and thawed for use.
(2) A mixed solution of the incubation system (excluding compound and β-NADPH) according to the above “composition of the incubation system” for the test was prepared, and pre-incubated in a 37° C. water bath constant temperature oscillator for 2 minutes.
(3) Control group (excluding β-NADPH): 30 μL of water and 30 μL of compound working solution (concentration: 10 μM) were added to 240 μL of the mixed solution of the incubation system of step (2), and vortexed for 30 seconds to mix well. The total reaction volume was 300 μL. A duplicate sample was prepared. The sample was incubated in a 37° water bath constant temperature oscillator. The timing began and the sampling time points were set at 0 minute and 60 minutes.
(4) Sample group: 70 μL β-NADPH solution (10 mM) and 70 μL compound working solution (concentration: 10 μM) were added to 560 μL of the mixed solution in step (2). The total reaction volume was 700 μL. The resulting mixture was vortexed for 30 seconds to mix well. A duplicate sample was prepared. The sample was incubated in a 37° C. water bath constant temperature oscillator. The timing began and the sampling time points were set at 0 minute, 5 minutes, 10 minutes, 20 minutes, 30 minutes, and 60 minutes after timing.
(5) After vortexing for 3 minutes, the sample was centrifuged at 12000 rpm for 5 minutes.
(6) 150 μL of water was added to 50 μL of the supernatant. The resulting mixture was evenly mixed in vortex, and the sample LC/MS/MS analysis was performed.

The next series deals with MAO-B (Homo sapiens (Human), UniProt P27338). Briefly: Selectivity of the compounds for MAO-B enzyme (MAO-Glo). Format: biochemical. The following applies: 60 minutes pre-incubation at 37° C. Here is the method:
(§1) 2. Selectivity of the Compounds for MAO-A/B Enzymes
(§2) Microplate reader (Perkin Elmer, Envision), 384 well plates (Perkin Elmer), centrifuge (Eppendorf), MAO-Glo™ (Promega), MAO-A (Active Motif) and MAO-B (Active Motif).
(§3) An appropriate amount of the test compound was dissolved in DMSO to 10 mM and stored. Before the experiment, an appropriate amount of 10 mM test compound mother liquor was diluted to 100 μM solution with DMSO. Then 4-fold gradient dilution with DMSO was performed, and 6 concentration gradients were formed.
(§4) The MAO-A/B mother liquor was diluted to 2×concentration enzyme solution with the assay buffer solution for the MAO-A/B.
(§5) The mother liquor of the MAO-A/B substrate mixed solution was diluted to 2×concentration substrate mixed solution with the assay buffer solution for the MAO-A/B.
(§6) 200 nL of compound solutions of different concentrations or solvent
(§7) and 10 μL of 2×MAO-A/B enzyme solution were added to a 384-well plate, evenly mixed by oscillation, and incubated at 37° C. for 60 minutes. Then 10 μL of 2×substrate mixed solution was added to each well, and immediately the detection was performed with the microplate reader in a condition of an exciting light at 535 nm, an emitting light at 587 nm, the fluorescence intensity for detecting each well of 5 minutes/run, and a total detection time of 25 minutes.
(§8) The inhibition rate was calculated according to the following formula: V(RFU/min)=(Ft(RFU)−F0(RFU))/(Time(min)) Inhibition rate (%)=100%−Vcmpd(RFU/min)/V max(RFU/min)×100%
(§9) V: the fluorescence change rate; Ft: fluorescence reading at the time point t; F0: fluorescence reading at the time point 0; Time: time period t; Vcmpd: the fluorescence change rate of the test compound; Vmax: the Max well fluorescence change rate.
(§10) The log values of the concentrations were taken as the X-axis and the percent inhibition rates were taken as the Y-axis, and the dose-effect curve was fitted using the log(inhibitor) vs. response-Variable slope of the analytical software GraphPad Prism 5 to obtain the IC50 value of each compound for enzyme activity.

The target of a further series is rhVAP-1 (Homo sapiens (Human), UniProt Q16853). Briefly: Inhibition activity of the compounds on the rhVAP-1 enzyme (Amplex Red/HRP fluorescence, benzylamine substrate). Format: biochemical. The following applies: 30 minutes pre-incubation at 37° C. The method, then: 1. Inhibition Activity of the Compounds on the rhVAP-1 Enzyme
Chain of rhVAP-1 (Q16853 whole entry): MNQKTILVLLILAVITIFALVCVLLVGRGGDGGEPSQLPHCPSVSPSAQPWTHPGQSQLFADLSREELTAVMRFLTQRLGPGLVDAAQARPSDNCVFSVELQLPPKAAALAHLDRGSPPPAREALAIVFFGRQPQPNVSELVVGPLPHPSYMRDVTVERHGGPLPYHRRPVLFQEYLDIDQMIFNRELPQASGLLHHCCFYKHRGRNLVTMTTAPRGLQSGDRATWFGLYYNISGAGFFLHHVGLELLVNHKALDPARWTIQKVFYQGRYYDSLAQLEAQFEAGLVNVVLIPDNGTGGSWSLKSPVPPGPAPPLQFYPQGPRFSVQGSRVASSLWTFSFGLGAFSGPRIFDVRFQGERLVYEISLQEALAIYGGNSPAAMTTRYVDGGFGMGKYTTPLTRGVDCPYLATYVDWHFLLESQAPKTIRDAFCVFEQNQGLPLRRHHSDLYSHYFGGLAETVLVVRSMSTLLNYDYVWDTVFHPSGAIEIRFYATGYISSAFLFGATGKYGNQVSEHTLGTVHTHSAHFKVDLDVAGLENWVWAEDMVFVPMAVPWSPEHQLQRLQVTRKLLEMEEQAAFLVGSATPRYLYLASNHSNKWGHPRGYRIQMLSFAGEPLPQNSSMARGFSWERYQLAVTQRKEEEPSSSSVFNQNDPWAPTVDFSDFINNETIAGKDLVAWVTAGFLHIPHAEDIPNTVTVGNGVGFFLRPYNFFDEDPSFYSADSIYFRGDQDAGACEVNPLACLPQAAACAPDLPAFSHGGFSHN
Multifunctional microplate reader (MD, FlexStation 3), black bottom-impermeable 96-well plate (Corning), rhVAP-1 (PeproTech)
An appropriate amount of the test compound was dissolved in DMSO to 10 mM and stored. Before the experiment, an appropriate amount of 10 mM test compound mother liquor was diluted to 10 μM solution with DMSO. Then 3-fold gradient dilution with DMSO was performed, and 10 concentration gradients were formed.
An appropriate amount of protein diluent was added to the rhVAP-1 powder to obtain 1 mg/mL of the mother liquor for storage. Before the experiment, the dilution with PBS provided a 4×concentration of the enzyme solution.
An appropriate amount of benzylamine was added to PBS and dissolved to obtain 200 mM of the benzylamine solution. 2 mM Amplex Red mother liquor and 500 U/mL HRP mother liquor were added. The dilution with PBS provided 2×concentration substrate mixed solution.
First, 10 μL of compound solutions of different concentrations, 25 μL of 4×rhVAP-1 enzyme solution and 15 μL of PBS were added to a 96-well plate, evenly mixed by oscillation, and incubated at 37° C. for 30 minutes. Then 50 μL of 2×substrate mixed solution was added to each well, and immediately the detection was performed with the microplate reader in a condition of an exciting light at 565 nm, an emitting light at 590 nm, the fluorescence intensity for detecting each well of 5 minutes/run, and a total detection time of 25 minutes. The inhibition rate was calculated according to the following formula: V(RFU/min)=(Ft(RFU)−F0(RFU))/(Time(min)) Inhibition rate (%)=100%−Vcmpd(RFU/min)/V max(RFU/min)×100%
as §9, §10

The target in a further series is MAO-A (Homo sapiens (Human), UniProt P21397). Briefly: Selectivity of the compounds for MAO-A enzyme (MAO-Glo). It counts as biochemical. The following applies: 60 minutes pre-incubation at 37° C. The method, then: as §1, §2, §3, §4, §5, §6, §7, §8, §9, §10
Chain of MAO-A (P21397 whole entry): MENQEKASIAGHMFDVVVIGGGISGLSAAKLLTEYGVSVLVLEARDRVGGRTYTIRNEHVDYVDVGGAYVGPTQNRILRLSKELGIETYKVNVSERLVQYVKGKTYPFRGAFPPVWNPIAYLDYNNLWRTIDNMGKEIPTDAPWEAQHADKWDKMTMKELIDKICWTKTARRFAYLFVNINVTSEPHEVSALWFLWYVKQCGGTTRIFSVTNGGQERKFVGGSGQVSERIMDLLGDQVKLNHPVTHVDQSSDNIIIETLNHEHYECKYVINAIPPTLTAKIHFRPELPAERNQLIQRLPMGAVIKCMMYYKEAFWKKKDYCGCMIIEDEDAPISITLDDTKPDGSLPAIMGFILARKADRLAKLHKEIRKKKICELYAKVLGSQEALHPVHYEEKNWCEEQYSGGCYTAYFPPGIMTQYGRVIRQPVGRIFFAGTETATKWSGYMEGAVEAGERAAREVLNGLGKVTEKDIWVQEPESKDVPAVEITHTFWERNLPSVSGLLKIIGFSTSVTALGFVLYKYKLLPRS

Chain of MAO-B (P27338 whole entry): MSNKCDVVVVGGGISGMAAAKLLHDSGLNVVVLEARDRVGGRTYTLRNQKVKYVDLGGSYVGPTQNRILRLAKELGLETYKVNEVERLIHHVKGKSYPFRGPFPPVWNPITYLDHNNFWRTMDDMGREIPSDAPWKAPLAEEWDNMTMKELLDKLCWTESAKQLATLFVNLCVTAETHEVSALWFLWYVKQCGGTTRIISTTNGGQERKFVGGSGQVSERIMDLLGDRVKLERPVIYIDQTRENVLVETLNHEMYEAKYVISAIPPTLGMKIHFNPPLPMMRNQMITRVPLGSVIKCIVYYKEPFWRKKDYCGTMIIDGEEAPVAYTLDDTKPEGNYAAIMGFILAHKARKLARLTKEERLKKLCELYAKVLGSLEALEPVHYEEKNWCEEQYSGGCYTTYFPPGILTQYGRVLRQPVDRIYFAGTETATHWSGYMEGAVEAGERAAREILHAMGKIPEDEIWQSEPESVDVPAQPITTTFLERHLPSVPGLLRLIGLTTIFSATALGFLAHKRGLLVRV

In series [1], `NC/C(=C\F)COc1cc2c(cn1)C(=O)N(C1CC1)CC2` [Compound 22, (E)-6-((2-(aminomethyl)-3-fluoroallyl)oxy)-2-cyclopropyl-3,4-dihydro-2,7-naphthyridin-1(2H)-one] came in with a ClH of 2.94 mL/min/kg.

`NC/C(=C/F)COc1ccc2c(n1)CCN(C1CC1)C2=O` [Compound 23, (Z)-2-((2-(aminomethyl)-3-fluoroallyl)oxy)-6-cyclopropyl-7,8-dihydro-1,6-naphthyridin-5(6H)-one] had a ClH in series [1] of 4.63 mL/min/kg.

One may read the IC50 as the concentration that gives 50% inhibition. Lower therefore signals higher potency. Consider `NC/C(=C\F)COc1cnc2c(c1)CCNC2=O` [Hydrochloride of Compound 8, (E)-3-((2-(aminomethyl)-3-fluoroallyl)oxy)-6,7-dihydro-1,7-naphthyridin-8(5H)-one], for which the IC50 on MAO-B was greater than 100 µM; on rhVAP-1 it was 0.03 µM.

On to `Cl.NC/C(=C\F)COc1ccc2c(c1)CN(C1CC1)C2=O` [Hydrochloride of Compound 16, (E)-5-((2-(aminomethyl)-3-fluoroallyl)oxy)-2-cyclopropyl isoindolin-1-one], for which the ClH in series [1] is given as 0.18 mL/min/kg. The IC50 against MAO-B is 2.8 µM; against rhVAP-1, 0.024 µM.

Consider `CCN(CC)C(=O)c1ccc(OC/C(=C/F)CN)cn1.Cl` [Hydrochloride of Compound 19, (E)-5-((2-(aminomethyl)-3-fluoroallyl)oxy)-N,N-diethylpicolinamide], for which the ClH entry in series [1] is listed as “→0 mL/min/kg”. The compound also showed an IC50 against rhVAP-1 of 0.021 µM.

Regarding `Cl.NC/C(=C\F)COc1cc2c(cn1)C(=O)N(C1CC1)C2` [Hydrochloride of Compound 21, (E)-6-((2-(aminomethyl)-3-fluoroallyl)oxy)-2-cyclopropyl-1,2-dihydro-3H-pyrrolo-[3,4-c]pyridin-3-one], the ClH in series [1] came out at 4.95 mL/min/kg. In addition, the IC50 on MAO-B was 14 µM; at rhVAP-1, 0.021 µM; against MAO-A, greater than 100 µM.

As for `NC/C(=C\F)COc1cnc2c(c1)CN(C1CC1)C2=O` [Hydrochloride of Compound 27, (E)-3-((2-(aminomethyl)-3-fluoroallyl)oxy)-6-cyclopropyl-5,6-dihydro-7H-pyrrolo[3,4-b]pyridin-7-one], the IC50 was found to be 38 µM against MAO-B and 0.016 µM at rhVAP-1.

Turning to `Cl.NC/C(=C/F)COc1cnc2c(c1)CN(C1CC1)C2=O` [Hydrochloride of Compound 28, (Z)-3-((2-(aminomethyl)-3-fluoroallyl)oxy)-6-cyclopropyl-5,6-dihydro-7H-pyrrolo[3,4-b]pyridin-7-one], the ClH result in series [1] was “→0 mL/min/kg”. Further, the IC50 at MAO-B came to 20 µM; against rhVAP-1, 0.014 µM.

With `Cl.NC/C(=C/F)COc1ccc2c(c1)CN(C1CC1)C2=O` [Hydrochloride of Compound 29, (Z)-5-((2-(aminomethyl)-3-fluoroallyl)oxy)-2-cyclopropylisoindolin-1-one], the ClH in series [1] is 4.18 mL/min/kg. Moreover, the IC50 stood at 4.1 µM at MAO-B and 0.025 µM against rhVAP-1.

For the compound `NC/C(=C\F)COc1ccc2c(c1)C(=O)N(C1CC1)C2=O` [Hydrochloride of Compound 30, (E)-5-((2-(aminomethyl)-3-fluoroallyl)oxy)-2-cyclopropyl isoindolin-1,3-dione], the values for the IC50 at MAO-B and on rhVAP-1 were 5.8 µM and 0.032 µM, respectively.

In turn, `NC/C(=C/F)COc1ccc2c(c1)C(=O)N(C1CC1)C2=O` [Hydrochloride of Compound 31, (Z)-5-((2-(aminomethyl)-3-fluoroallyl)oxy)-2-cyclopropylisoindolin-1,3-dione] yielded an IC50 at rhVAP-1 of 0.011 µM.

For `NC/C(=C/F)COc1ccc2c(c1)CCN(C1CC1)C2=O` [Hydrochloride of Compound 34, (Z)-6-((2-(aminomethyl)-3-fluoroallyl)oxy)-2-cyclopropyl-3,4-dihydroisoquinolin-1(2H)-one], the values for the IC50 against MAO-B and on rhVAP-1 were 8.4 µM and 0.006 µM, respectively.

For `NC/C(=C\F)COc1ccc2c(n1)CN(C1CC1)C2=O` [Trifluoroacetate of Compound 24, (E)-2-((2-(aminomethyl)-3-fluoroallyl)oxy)-6-cyclopropyl-6,7-dihydro-5H-pyrrolo[3,4-b]pyridin-5-one], the ClH entry in series [1] was “→0 mL/min/kg”. In addition, the values for the IC50 on MAO-B and at rhVAP-1 were 37 µM and 0.024 µM, respectively.

As for `NC/C(=C/F)COc1ccc2c(n1)CN(C1CC1)C2=O` [Trifluoroacetate of Compound 25, (Z)-2-((2-(aminomethyl)-3-fluoroallyl)oxy)-6-cyclopropyl-6,7-dihydro-5H-pyrrolo[3,4-b]pyridin-5-one], the IC50 against MAO-B worked out at 13 µM; against rhVAP-1, 0.025 µM.

Regarding `NC/C(=C\F)COc1ccc2c(n1)CCN(C1CC1)C2=O` [Trifluoroacetate of Compound 26, (E)-2-((2-(aminomethyl)-3-fluoroallyl)oxy)-6-cyclopropyl-7,8-dihydro-1,6-naphthyridin-5(6H)-one], the IC50 turned out to be 8.8 µM at MAO-B and 0.051 µM against rhVAP-1.

Consider `NC/C(=C/F)COc1cc2c(cn1)C(=O)N(C1CC1)CC2` [Trifluoroacetate of Compound 32, (Z)-6-((2-(aminomethyl)-3-fluoroallyl)oxy)-2-cyclopropyl-3,4-dihydro-2,7-naphthyridine-1(2H)-one], for which the results for the IC50 against MAO-B and against rhVAP-1 were 6.6 µM and 0.011 µM, respectively.

Regarding `NC/C(=C/F)COc1cc2c(cn1)C(=O)N(C1CC1)C2` [Trifluoroacetate of Compound 33, (Z)-6-((2-(aminomethyl)-3-fluoroallyl)oxy)-2-cyclopropyl-1,2-dihydro-3H-pyrrolo-[3,4-c]pyridin-3-one], the figures for the IC50 against MAO-B and at rhVAP-1 were 8.6 µM and 0.014 µM, respectively.
